According to ChEMBL document CHEMBL3507680, “University of Dundee, Gates Library screen for HepG2 cell viability”:

Experiment: Human HepG2 cell viability assay in 384 well format
Format: toxicity, cell-based
Design: dose 125 nL, time 70.5 hour; concentration not given beside the values
Conditions: HepG2 cells, read-out: Inhibition

Compound	cytotoxicity at 70.5 h [%]
O=C(C1CCC2(CCN(CC3CCOCC3)CC2)O1)N1CCCC1 (configuration not stated)	4.83
N#CCCN(CC1CCOC1)Cn1ccc(-c2ccsc2)n1 (configuration not stated)	0.369
O=C(CN1CCCC(Cn2cncn2)C1)NCCC1=CCCCC1 (configuration not stated)	7.12
CCOC(=O)[C@]12CCCN(Cc3cccs3)C[C@H]1CN(C(C)=O)C2	-1.84
CCc1nnc(NC(=O)N(CCOC)Cc2ccc(C)o2)s1	14.4
CN(C)C(C(=O)NCCn1cccc1)c1cccc(F)c1 (configuration not stated)	-4.48
Cc1nc(N2CCCC2)nc2c1CN(C(=O)N1CCOCC1)CC2	-14.3
CN(C)CC1(O)CCN(Cc2cnc3c(-c4ccccc4)cnn3c2)C1 (configuration not stated)	-4.22
COc1ccc(/C=C/CN2CCCC3(C2)CN(C)C(=O)O3)cc1 (configuration not stated)	11.6
COc1cccc(NC(=O)N(CCO)C2CCc3ccccc32)c1 (configuration not stated)	-0.598
CCOCCC1(CNC(=O)c2ccc(C)nc2)CCCC1	0.601
CCc1ncc(C(=O)N(C)C(C)c2ccc3c(c2)OCCO3)cn1 (configuration not stated)	1.19
Cc1cnc2cc(C3CCN(C(=O)c4ccncc4)CC3)[nH]c2n1	-12.8
O=C(NCCc1ccccc1)C1CCN(C(=O)Cn2cncn2)C1 (configuration not stated)	-10.2
COc1cc(C)ccc1S(=O)(=O)N1CC[C@](C)(O)[C@H](C)C1	-5.97
CN(Cc1cccnc1)[C@@H]1CN(Cc2ccccn2)[C@@H]2CCCO[C@H]12	-2.2
CC(C)CN1C[C@@H]2CN(S(=O)(=O)c3cccs3)C[C@@H]2C1=O	-10.3
Cc1ncsc1C(=O)NC1CCN(CCCC#N)CC1	-1.22
Cc1cc(C)n(NC(=O)c2ccc(Cl)cc2Cl)c(=O)c1	-16.4

Compound	cytotoxicity at 70.5 h [%]
CCCC(Cn1cnc(-c2ccccc2)c1-c1cncn1CC)N(C)C (configuration not stated)	-0.815
NC(=O)COc1ccc(CNCc2cc(F)ccc2F)cc1	32.7
CN1CC2(CCNCC2)CC1C(=O)NCCCNc1cccnc1 (configuration not stated)	17.1
CC(C)CNC(=O)CNc1c(NCc2ccco2)c(=O)c1=O	0.885
CN(C)S(=O)(=O)N1CC[C@]2(C[C@H](Oc3ncccc3F)CO2)C1	2.84
CCc1ccc(CN2CCN(c3ccc(C#N)cc3)C(=O)C2)nc1	-10.5
Cc1nc(CN2CCN(C(=O)c3scnc3C)CC2)cs1	-3.33
COC(=O)CC(c1cccc(OC(F)F)c1)c1oc(C)cc(=O)c1O (configuration not stated)	7.18
COCc1nc(C(=O)N2CCN(Cc3ccsc3)CC2)cs1	-0.448
COc1ccc(-n2cc(CCO)cn2)cc1C	-9.33
Cc1cc(C(=O)N(C)Cc2cccs2)nc(N2CCCCC2)n1	-6.38
CCOc1ccc(NCc2cnc(N3CCN(C)CC3)nc2)cn1	-1.43
CNC(=O)C1CCN(c2ncnc3c2CCN(C(=O)C2CC2)C3)C1 (configuration not stated)	-5.76
Cc1n[nH]cc1CNCC1(c2ccc3c(c2)OCO3)CCOCC1	-5.66
COCCCC(=O)Nc1cccnc1N1CCCCC1	-10.4
Cc1ccc(N2CCCN(C(=O)CC3CCCO3)CC2)nn1 (configuration not stated)	-18.7
O=C(Nc1ccc(F)cc1)C(c1ccccc1)N1CCOCC1 (configuration not stated)	5.55
Cc1nc(C(=O)N(C)CC(F)(F)C(F)(F)F)c2ccccn12	-13.5
COc1cccc(CC2CN(C(=O)c3ccnn3C)CCO2)c1 (configuration not stated)	-4.96

Compound	cytotoxicity at 70.5 h [%]
CC(C)c1cc(NC(=O)CN2CCC(C(N)=O)CC2)on1	-6.12
CC(C)CNC(=O)c1cn(C)c(=O)c2ccccc12	7.18
CSCCC(CO)NC(=O)c1ccc2[nH]/c(=N\S(C)(=O)=O)sc2c1 (configuration not stated)	-13.7
COC(=O)[C@H]1C[C@@H](O)CCN1S(=O)(=O)c1cc(C)c(Cl)cc1C	0.229
Cc1c(CN2CCCC(C(=O)c3ccccc3)C2)cc(C#N)n1C (configuration not stated)	-4.58
CC(C)CN(Cc1ccc(C(F)(F)F)nc1)Cc1cnn(C)c1	-3.14
OCCC1CN(c2nc(-c3ccncc3)nc3c2CCNCC3)CCO1 (configuration not stated)	2.55
O=C(NC1CC1)C1CCCN1c1ncnc2ccsc12 (configuration not stated)	-9.43
Cc1cccn2c(CNC(C)CO)cnc12 (configuration not stated)	40.8
CO[C@@H]1CCN(Cc2cccc(C)n2)[C@@H]2CN(Cc3ccncc3)C[C@@H]21	-1.88
CCN(CCN1CCCCCC1)C(=O)COc1cccnc1	16
Cc1cc(F)ccc1C(=O)N1C[C@@H]2COC[C@]2(CN(C)C)C1	-14.9
Cc1nn2cnnc2c(C)c1CCC(=O)Nc1nc2c(s1)CCC2	-13
CN(C)c1ncccc1CNC(=O)NCCN(C)C1CCCC1	-0.0535
CC(=O)N1Cc2cnc(C(C)(C)C)nc2C1	19.2
Cc1ccsc1C(=O)N1Cc2ncn(C)c2C(COCC2CC2)C1 (configuration not stated)	5.9
CN(CC(=O)N1CCCC1c1noc(C2CC2)n1)Cc1ccccc1 (configuration not stated)	-7.61
CCc1nc(C)c(C(=O)NCCN2CCCC2)s1	-5.7
Cc1nc(C(C)C)sc1C(=O)N(C)Cc1nc(-c2ccccn2)no1	-9.57
